Results from ChEMBL document CHEMBL1144482, “Design, synthesis, biochemical evaluation and antimycobacterial action of phosphonate inhibitors of antigen 85C, a crucial enzyme involved in biosynthesis of the mycobacterial cell wall” (Eur J Med Chem, 2007).
In brackets after ≈: the same amount, converted by molar mass. Activity calls are given as the source filed them. No cut-off for these calls is given here.

Legend:
[1] = system: Mycobacterium avium; test: Growth inhibition of Mycobacterium avium 2447; format: functional
[2] = target: Diacylglycerol acyltransferase/mycolyltransferase Ag85C (Mycobacterium tuberculosis, UniProt P9WQN9); test: Inhibition of Mycobacterium tuberculosis recombinant antigen 85C mycolyltransferase
Sequence of Diacylglycerol acyltransferase/mycolyltransferase Ag85C (P9WQN9 whole entry): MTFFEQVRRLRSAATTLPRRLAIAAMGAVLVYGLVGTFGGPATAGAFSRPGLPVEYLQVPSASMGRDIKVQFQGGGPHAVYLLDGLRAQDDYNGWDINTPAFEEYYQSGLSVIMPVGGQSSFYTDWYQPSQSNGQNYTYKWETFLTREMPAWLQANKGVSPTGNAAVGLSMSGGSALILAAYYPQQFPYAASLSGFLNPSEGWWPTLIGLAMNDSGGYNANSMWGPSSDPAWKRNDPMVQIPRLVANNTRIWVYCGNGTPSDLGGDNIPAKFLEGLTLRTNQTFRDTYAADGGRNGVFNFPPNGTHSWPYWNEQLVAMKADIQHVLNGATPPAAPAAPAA

| Compound | Activity [1] | MIC [1] | IC50 [2] |
| --- | --- | --- | --- |
| CCCCP(=O)(OCC)OCN1C(=O)c2ccccc2C1=O (stereo not drawn) | inactive |  |  |
| CCCCCCCCCP(=O)(OCC)OCN1C(=O)c2ccccc2C1=O (stereo not drawn) |  | 84.5 µg/mL (≈ 214 µM) |  |
| CCCCCCCCCCCCCCP(=O)(OCC)OCc1ccccc1Oc1ccccc1 (stereo not drawn) |  |  | 862 µM |
| CCCCCCCP(=O)(OCC)OCc1ccccc1Oc1ccccc1 (stereo not drawn) |  | 319 µg/mL (≈ 817 µM) | 21 µM |
| CCOP(=O)(O)CCCCN1C(=O)c2ccccc2C1=O |  |  | 110 µM |
| CCCCCCP(=O)(OCC)OCc1cc(OC)c(OC)c(OC)c1 (stereo not drawn) |  |  | 102 µM |
| CCCCP(=O)(OCC)OCCN1C(=O)c2ccccc2C1=O (stereo not drawn) |  | 406 µg/mL (≈ 1200 µM) |  |
| CCCCCCP(=O)(OCC)OCc1ccccc1Oc1ccccc1 (stereo not drawn) |  | 260 µg/mL (≈ 690 µM) | 42.6 µM |
| CC[C@H]1OC(=O)[C@H](C)[C@@H](O[C@H]2C[C@@](C)(OC)[C@@H](O)[C@H](C)O2)[C@H](C)[C@@H](O[C@@H]2O[C@H](C)C[C@H](N(C)C)[C@H]2O)[C@](C)(OC)C[C@@H](C)C(=O)[C@H](C)[C@@H](O)[C@]1(C)O [CLARITHROMYCIN] |  | 0.2 µg/mL (≈ 0.267 µM) |  |
| CCOP(=O)(O)CCc1ccccc1 |  |  | 225 µM |
| CCCCCCCP(=O)(OCC)OCN1C(=O)c2ccccc2C1=O (stereo not drawn) | inactive |  |  |
| CCCCCCCCCP(=O)(OCC)OCCN1C(=O)c2ccccc2C1=O (stereo not drawn) | inactive |  |  |
| CCCCCCCCCP(=O)(OCC)OCc1ccccc1Oc1ccccc1 (stereo not drawn) |  | 188 µg/mL (≈ 450 µM) | 14.8 µM |
| CCCCP(=O)(OCC)OCc1ccccc1Oc1ccccc1 (stereo not drawn) |  | 249 µg/mL (≈ 714 µM) | 2 µM |
